Results on one compound are retold here after publication PMC9541495, “Understanding the interaction of 14‐3‐3 proteins with hDMX and hDM2: a structural and biophysical study” (The Febs Journal, 2022).

Holding throughout (type): binding
One experiment concerns the target T1, 14‐3‐3 ε (Homo sapiens, UniProt P62258).
T1 construct: full‐length proteins were concentrated by centrifugation, rebuffered in HEPES buffer; made in house; host or cells: E. coli BL21(DE3)
T1 sequence (P62258 1-255): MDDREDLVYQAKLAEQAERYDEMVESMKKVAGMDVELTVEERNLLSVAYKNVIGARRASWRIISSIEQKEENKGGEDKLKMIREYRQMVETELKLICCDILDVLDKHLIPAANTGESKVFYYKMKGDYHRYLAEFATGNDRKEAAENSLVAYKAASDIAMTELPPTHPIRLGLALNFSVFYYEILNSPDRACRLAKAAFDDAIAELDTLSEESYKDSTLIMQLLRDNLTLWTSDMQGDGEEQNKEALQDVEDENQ
The experiment in a line: Fluorescence anisotropy direct titration, 14‐3‐3ε. To be noted: FA direct titration; FAM‐Ahx tracer peptide 50 nM; HEPES/NaCl/Tween 20/BSA pH 7.4; 1:1 fit; n = 3; read-out: K d, 14‐3‐3 ε. An excerpt:
(§1) 14‐3‐3 proteins were titrated against a constant concentration of the tracer resulting in an increase of anisotropy upon engaging 14‐3‐3 proteins (Fig. 2A–C for 14‐3‐3 binding hDMX sequences and Figs S4–S6, for 14‐3‐3 binding hDM2 sequences, non‐binding sequence, and unphosphorylated controls). A noteworthy feature of the data is that different maximum anisotropy levels were observed between hDMX or hDM2 peptides and 14‐3‐3 isoforms, indicating different diffusion properties of the fluorophore when bound to the different 14‐3‐3 isoforms. […]
(§2) […]
(§3) All assays were performed in 384 well plates (each experiment was run in triplicates) and data were collected by Perkin Elmer EnVision […] plate reader with excitation at 480 nm (30 nm bandwidth), polarised dichroic mirror at 505 nm and emission at 535 nm (40 nm bandwidth, S and P polarised). […] A ½ fold dilution series was performed in the titration, with plates read after 30 min, 4 h and 20–24 h. […] Total intensity I and anisotropy r were calculated using Equations 1 and 2 for each well. […]

A further experiment has as its target T2, 14‐3‐3 τ (Homo sapiens, UniProt P27348).
T2 construct: full‐length proteins were concentrated by centrifugation, rebuffered in HEPES buffer; made in house; host or cells: E. coli BL21(DE3)
T2 sequence (P27348 1-245): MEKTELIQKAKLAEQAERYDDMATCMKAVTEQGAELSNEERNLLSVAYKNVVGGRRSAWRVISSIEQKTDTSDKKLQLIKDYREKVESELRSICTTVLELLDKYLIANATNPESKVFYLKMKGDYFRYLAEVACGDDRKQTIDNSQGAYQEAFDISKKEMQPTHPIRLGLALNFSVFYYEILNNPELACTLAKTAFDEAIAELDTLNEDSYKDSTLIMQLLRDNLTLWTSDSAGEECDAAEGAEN
The experiment is described as follows: Fluorescence anisotropy direct titration, 14‐3‐3τ. To be noted: FA direct titration; FAM‐Ahx tracer peptide 50 nM; HEPES/NaCl/Tween 20/BSA pH 7.4; 1:1 fit; n = 3; read-out: K d, 14‐3‐3 τ.
From the text: as §1, §2, §3
In general terms: Polarisation of emitted light reports the rotation of a fluorescent probe.

The next experiment deals with T3, 14‐3‐3 σ (Homo sapiens, UniProt P31947).
T3 construct: full‐length proteins were concentrated by centrifugation, rebuffered in HEPES buffer; made in house; host or cells: E. coli BL21(DE3)
T3 sequence (P31947 1-248): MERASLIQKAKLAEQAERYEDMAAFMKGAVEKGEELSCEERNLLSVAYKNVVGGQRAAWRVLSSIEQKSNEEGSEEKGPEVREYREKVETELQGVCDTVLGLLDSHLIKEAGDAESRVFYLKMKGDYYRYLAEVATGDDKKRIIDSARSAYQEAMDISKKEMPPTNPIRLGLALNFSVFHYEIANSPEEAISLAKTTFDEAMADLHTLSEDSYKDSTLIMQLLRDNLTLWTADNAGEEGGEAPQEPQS
The experiment is described as follows: Fluorescence anisotropy direct titration, 14‐3‐3σ. To be noted: FA direct titration; FAM‐Ahx tracer peptide 50 nM; HEPES/NaCl/Tween 20/BSA pH 7.4; 1:1 fit; n = 3; read-out: K d, 14‐3‐3 σ.
From the text: as §1, §2, §3

Where a SMILES comes first, the peptide text is derived from it. [ ]: non-standard residue; d: D form. The star is where a group is joined. 5FAM = O=C1OC2(c3ccc(O)cc3Oc3cc(O)ccc32)c2ccc(C(=O)*)cc21; pS = N[C@@H](COP(=O)(O)O)C(=O)O; Ahx = NCCCCCC(=O)O A value given as a limit tells only on which side of the number the result lay.

Regarding `CC[C@H](C)[C@H](NC(=O)[C@H](CO)NC(=O)[C@H](CC(=O)O)NC(=O)[C@H](COP(=O)(O)O)NC(=O)[C@H](CCCCN)NC(=O)[C@H](Cc1c[nH]cn1)NC(=O)[C@H](CCCNC(=N)N)NC(=O)[C@H](CCCCN)NC(=O)[C@H](CCCNC(=N)N)NC(=O)[C@H](CCC(N)=O)NC(=O)CCCCCNC(=O)c1ccc2c(c1)C(=O)OC21c2ccc(O)cc2Oc2cc(O)ccc21)C(=O)N[C@@H](CO)C(=O)N[C@@H](CC(C)C)C(=O)N[C@@H](CO)C(N)=O` [hDM2_180‐192 ^pSer186] ({5FAM-Ahx}-QRKRHK[pS]DSISLS-NH2), the Kd at 14‐3‐3 ε was above 260 µM; on 14‐3‐3 τ it was above 250 µM; on 14‐3‐3 σ, above 170 µM.
